Patent US20220106301A1, “ACETAMIDO-PHENYLBENZAMIDE DERIVATIVES AND METHODS OF USING THE SAME” (Athenex, Inc., priority 2020, published 2022)

These molecules were tested against CYP3A4 (Homo sapiens, UniProt P08684) (assay: Determination of CYP3A4 inhibitory activity (human liver microsome, Luciferin-IPA)). Settings: CYP3A4 IC50 (nM), 37° C. 11 minutes.
How it was run: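 Final compound concentrations 37, 111, 333, 1000 and 3000 nM; reaction at 37° C for 11 min, then luciferin detection reagent 5 min at room temperature with luminescence read-out. IC50 from nonlinear regression of dose-response.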

Chain of CYP3A4 (P08684 whole entry): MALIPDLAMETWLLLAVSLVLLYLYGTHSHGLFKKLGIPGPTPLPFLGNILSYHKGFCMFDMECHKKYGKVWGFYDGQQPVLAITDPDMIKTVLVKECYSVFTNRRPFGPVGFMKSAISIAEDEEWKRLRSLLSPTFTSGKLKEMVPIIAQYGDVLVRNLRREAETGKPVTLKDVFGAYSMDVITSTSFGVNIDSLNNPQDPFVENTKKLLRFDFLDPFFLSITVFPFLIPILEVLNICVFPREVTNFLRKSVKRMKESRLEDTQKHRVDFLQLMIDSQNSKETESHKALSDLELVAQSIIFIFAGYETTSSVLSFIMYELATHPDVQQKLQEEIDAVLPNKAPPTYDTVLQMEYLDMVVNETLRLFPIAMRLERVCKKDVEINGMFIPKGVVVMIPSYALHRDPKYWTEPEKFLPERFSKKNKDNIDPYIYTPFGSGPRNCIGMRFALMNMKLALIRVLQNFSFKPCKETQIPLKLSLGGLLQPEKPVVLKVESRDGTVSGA

Structure (SMILES)	IC50 [nM]
COc1cc(NC(=O)c2cnc3ccccc3n2)c(C(=O)Nc2ccc(CCN(Cc3ccc4c(cnn4C)c3)Cc3ccc4c(cnn4C)c3)cc2)cc1OC [Compound 167]	> 1000
COc1cc(NC(=O)c2cnc3ccccc3n2)c(C(=O)Nc2ccc(CCN(Cc3cccc(-n4ccnc4)c3)Cc3ccc4c(cnn4C)c3)cc2)cc1OC [Compound 30]	500 to 1000
CN(CCc1ccc(NC(=O)c2ccc(C(=O)OCc3cccnc3)cc2NC(=O)c2cc(=O)c3ccccc3o2)cc1)Cc1ccc2c(cnn2C)c1 [Compound 84]	> 1000
CCN(CCc1ccc(NC(=O)c2cc(OC)c(OC)cc2NC(=O)c2cc(=O)c3ccccc3o2)cc1)Cc1cccc(-c2ccco2)c1 [Compound 141]	> 1000
CCN(CCc1ccc(NC(=O)c2cc(OC)c(OC)cc2NC(=O)c2cc(=O)c3ccccc3o2)cc1)Cc1ccc(C)c2ncccc12 [Compound 144]	> 1000
COc1cc(NC(=O)c2cnc3ccccc3n2)c(C(=O)Nc2ccc(CCN(Cc3cncc(C(C)C)c3)Cc3ccc4c(cnn4C)c3)cc2)cc1OC [Compound 75]	250 to 500
COc1cc(NC(=O)c2cc(=O)c3ccccc3o2)c(C(=O)Nc2ccc(CCN(Cc3ccc(-c4ccncc4)cc3)Cc3ccc4cnn(C)c4c3)cc2)cc1OC [Compound 187]	> 1000
COc1cc(NC(=O)c2cnc3ccccc3n2)c(C(=O)Nc2ccc(CCN(Cc3ccc4c(cnn4C)c3)Cc3ccc4cnn(C)c4c3)cc2)cc1OC [Compound 172]	> 1000
CCN(CCc1ccc(NC(=O)c2cc(OC)c(OC)cc2NC(=O)c2cc(=O)c3ccccc3o2)cc1)Cc1ccc2c(c1)n(C)c(=O)n2C [Compound 161]	> 1000
COc1cc(NC(=O)c2cc(=O)c3ccccc3o2)c(C(=O)Nc2ccc(CCN(Cc3ccc(N)nc3)Cc3ccc4c(cnn4C)c3)cc2)cc1OC [Compound 224]	> 1000
CN(CCc1ccc(NC(=O)c2ccc(C(=O)O)cc2NC(=O)c2cc(=O)c3ccccc3o2)cc1)Cc1ccc2c(cnn2C)c1 [Compound 271]	> 1000
COc1cc(NC(=O)c2cc(=O)c3ccccc3o2)c(C(=O)NCc2ccc(CN(Cc3ccc(-c4cncs4)cc3)Cc3ccc4c(cnn4C)c3)cc2)cc1OC [Compound 238]	> 1000
COCCOc1cncc(CN(CCc2ccc(NC(=O)c3cc(OC)c(OC)cc3NC(=O)c3cc(=O)c4ccccc4o3)cc2)Cc2ccc3c(cnn3C)c2)c1 [Compound 56]	250 to 500

More lines, now with the values ahead:

IC50 [nM]	Structure (SMILES)
100 to 250	COc1cc(NC(=O)c2cc(=O)c3ccccc3o2)c(C(=O)Nc2ccc(CCN(Cc3cccnc3)Cc3ccc(C)c4ncccc34)cc2)cc1OC [Compound 250]
250 to 500	COc1cc(NC(=O)c2cc(=O)c3ccccc3o2)c(C(=O)Nc2ccc(CCN(Cc3cccc(-n4ccnc4)c3)C(C)C)cc2)cc1OC [Compound 10]
250 to 500	COc1cc(NC(=O)c2cc(=O)c3ccccc3o2)c(C(=O)Nc2ccc(CCN(Cc3cccnc3)Cc3cccc(-c4nc(C)no4)c3)cc2)cc1OC [Compound 203]
250 to 500	COCCOc1cncc(CN(CCc2ccc(NC(=O)c3cc(OC)c(OC)cc3NC(=O)c3cnc4ccccc4c3)cc2)Cc2ccc3c(cnn3C)c2)c1 [Compound 61]
100 to 250	COc1cc(NC(=O)c2cc(=O)c3ccccc3o2)c(C(=O)NCc2ccc(CN(Cc3ccc(-n4ccnc4)cc3)Cc3ccc4c(cnn4C)c3)cc2)cc1OC [Compound 237]
100 to 250	CCCN(CCc1ccc(NC(=O)c2cc(OC)c(OC)cc2NC(=O)c2cc(=O)c3ccccc3o2)cc1)Cc1ccc(-n2ccnc2)c(OC)c1 [Compound 91]
100 to 250	COc1cc(NC(=O)c2cnc3ccccc3c2)c(C(=O)Nc2ccc(CCN(C)Cc3ccc(-n4ccnc4)cc3)cc2)cc1OC [Compound 2]
100 to 250	COc1cc(NC(=O)c2cc(=O)c3ccccc3o2)c(C(=O)Nc2ccc(CCN(C)C(=O)CCc3cccnc3)cc2)cc1OC [Compound 119]
< 100	COc1cc(NC(=O)c2cc(=O)c3ccccc3o2)c(C(=O)Nc2ccc(CCN(Cc3cccc(-n4ccnc4)c3)Cc3ccc4cnn(C)c4c3)cc2)cc1OC [Compound 177]
